# Experiment: Pharmacokinetics after intravenous and oral administration in rats
# Assay type: in vivo
# Conditions: Rats; iv dosing; dose 1 mg/kg (0.5 for Ex. 1, 10, 11, 35; 0.48 for Ex. 24)
# Description: The LC/MS/MS system used in the analysis consists of an Agilent 1200 Series vacuum degasser, binary pump, well-plate autosampler, thermostatted column compartment, the Agilent G6430 Triple Quadrupole Mass Spectrometer with an electrosprayionization (ESI) source. Quantitative analysis was carried out using MRM mode. The parameters for MRM transitions are in the Table A.
# An Agilent XDB-C18, 2.1×30 mm, 3.5 M column was used for the analysis. 5 L of the samples were injected. Analysis condition: The mobile phase was 0.1% formic acid in water (A) and 0.1% formic acid in methanol (B). The flow rate was 0.4 mL/min. And the gradient of Mobile phase was in the Table B.
# Alternatively, an Agilent 6330 series LC/MS/MS spectrometer equipped with G1312A binary pumps, a G1367A autosampler and a G1314C UV detector were used in the analysis. An ESI source was used on the LC/MS/MS spectrometer. The analysis was done in positive ion mode as appropriate and the MRM transition for each analyte was optimized using standard solution. A Capcell MP-C18 100×4.6 mm I.D., […] column (Phenomenex, Torrance, Calif., USA) was used during the analysis. The mobile phase was 5 mM ammonia acetate, 0.1% MeOH in water (A): 5 mM ammonia acetate, 0.1% MeOH in acetonitrile (B) (70:30, v/v). The flow rate was 0.6 mL/min. Column was maintained at ambient temperature. 20 μL of the samples were injected.
# The compounds disclosed herein are assessed in pharmacokinetic studies in mice, rats, dogs or monkeys. The compounds are administered as a water solution, 2% HPMC+1% TWEEN®80 in water solution, 5% DMSO+5% solutol in saline, 4% MC suspension or capsule. For the intravenous administration, the animals are generally given at 1 or 2 mg/kg dose. For the oral (p.o.) dosing, mice and rats are generally given 5 or 10 mg/kg dose, and dogs and monkeys are generally given 10 mg/kg dose. The blood samples (0.3 mL) are drawn at 0.25, 0.5, 1.0, 2.0, 3.0, 4.0, 6.0, 8.0, 12 and 24 h time points or 0.083, 0.25, 0.5, 1.0, 2.0, 4.0, 6.0, 8.0 and 24 h time points and centrifuged at 3,000 or 4000 rpm for 2 to 10 min. The plasma solutions are collected, stored at −20° C. or −70° C. until analyzed by LC/MS/MS as described above.
row,CL/F [mL/min/kg],Structure (SMILES)
1,118,CC[C@H](Nc1ncnc(N)c1-c1noc(C)n1)c1nc2ccccc2c(=O)n1-c1ccccc1F
2,74.2,"CC[C@H](Nc1ncnc(N)c1-c1noc(C)n1)c1nc2cccc(C)c2c(=O)n1-c1ccccc1C (single isomer, unassigned) [Ex. 15]"
3,159,"CC[C@H](Nc1ncnc(N)c1-c1nc(C)no1)c1nc2ccccc2c(=O)n1-c1ccccc1F (single isomer, unassigned) [Ex. 22]"
4,70.5,"CC[C@H](Nc1ncnc(N)c1-c1nnc(C)o1)c1nc2ccccc2c(=O)n1-c1ccccc1F (single isomer, unassigned) [Ex. 24]"
5,61.7,"CC[C@H](Nc1ncnc(N)c1-c1nc(C)no1)c1nc2cccc(C)c2c(=O)n1-c1ccccc1C (single isomer, unassigned) [Ex. 27]"
6,130,"CC[C@H](Nc1ncnc(N)c1-c1nc(C)co1)c1nc2cccc(C)c2c(=O)n1-c1ccccc1C (single isomer, unassigned) [Ex. 29]"
7,70.5,"CC[C@H](Nc1ncnc(N)c1-c1ncn(C)n1)c1nc2cccc(C)c2c(=O)n1-c1ccccc1C (single isomer, unassigned) [Ex. 30]"
8,64.8,"CC[C@H](Nc1ncnc(N)c1-c1nnc(C)o1)c1nc2cccc(C)c2c(=O)n1-c1ccccc1C (single isomer, unassigned) [Ex. 31]"
9,61.8,"CC[C@H](Nc1ncnc(N)c1-c1ncn(C)n1)c1nc2cccc(Cl)c2c(=O)n1-c1ccccc1F (single isomer, unassigned) [Ex. 45]"
10,47.3,"CC[C@H](Nc1ncnc(N)c1-c1nnc(C)o1)c1nc2cccc(Cl)c2c(=O)n1-c1ccccc1 [Ex. 1, (S)-2-(1-((6-amino-5-(5-methyl-1,3,4-oxadiazol-2-yl)pyrimidin-4-yl)amino)-propyl)-5-chloro-3-phenylquinazolin-4(3H)-one]"
11,70.8,"CC[C@H](Nc1ncnc(N)c1-c1nc(C)no1)c1nc2cccc(Cl)c2c(=O)n1-c1ccccc1 [Ex. 3, (S)-2-(1-((6-amino-5-(3-methyl-1,2,4-oxadiazol-5-yl)pyrimidin-4-yl)amino)-propyl) 5-chloro-3-phenylquinazolin-4(3H)-one]"

# Second part, the molecule before the results:
row,Structure (SMILES),CL/F [mL/min/kg]
1,CC[C@H](Nc1ncnc(N)c1-c1noc(C)n1)c1nc2cccc(C)c2c(=O)n1C1CC1,40.3
2,"CC[C@H](Nc1ncnc(N)c1-c1ncc(C)o1)c1nc2cccc(C)c2c(=O)n1-c1ccccc1C (single isomer, unassigned) [Ex. 28]",61.2
3,"CC[C@H](Nc1ncnc(N)c1-c1nnc(C)o1)c1nc2cccc(Cl)c2c(=O)n1C1CC1 [Ex. 2, (S)-2-(1-((6-amino-5-(5-methyl-1,3,4-oxadiazol-2-yl)pyrimidin-4-yl)amino)-propyl)-5-chloro-3-cyclopropylquinazolin-4(3H)-one]",41.2
4,"CC[C@H](Nc1ncnc(N)c1C1=N[C@@H](C)CO1)c1nc2cccc(Cl)c2c(=O)n1C1CC1 [Ex. 5, 2-((S)-1-((6-amino-5-((S)-4-methyl-4,5-dihydrooxazol-2-yl)pyrimidin-4-yl)amino)propyl)-5-chloro-3-cyclopropylquinazolin-4(3H)-one]",59.5
5,CC[C@H](Nc1ncnc(N)c1C1=N[C@@H](C)CO1)c1nc2cccc(Cl)c2c(=O)n1-c1ccccc1 [Ex. 6],110
6,"CC[C@H](Nc1ncnc(N)c1-c1ncc(C)o1)c1nc2cccc(Cl)c2c(=O)n1C1CC1 [Ex. 7, (S)-2-(1-((6-amino-5-(5-methyloxazol-2-yl)pyrimidin-4-yl)amino)propyl)-5-chloro-3-cyclopropylquinazolin-4(3H)-one]",54.8
7,"CC[C@H](Nc1ncnc(N)c1-c1ncnn1C)c1nc2cccc(Cl)c2c(=O)n1C1CC1 [Ex. 9, 2-((1S)-1-((6-amino-5-(1-methyl-1H-1,2,4-triazol-5-yl)pyrimidin-4-yl)amino)-propyl)-5-chloro-3-cyclopropylquinazolin-4(3H)-one]",27.3
